The values that follow come from patent publication US20140057915A1, “KINASE INHIBITORS” (TOPIVERT PHARMA LIMITED, priority 2012, published 2014).

By IC50 is commonly meant the midpoint of a concentration-inhibition curve.

One data set concerns the target Syk (Homo sapiens, UniProt P43405). The experiment in a line: Syk enzyme inhibition (FRET). The following applies: Table 4a1. The format is biochemical. The method in brief:
(§1)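 Enzyme was preincubated with test compound (added as 4, 0.4, 0.04 or 0.004 μg/mL solutions) for 2 hr at RT. FRET peptide (8 μM solution) and ATP solution (800 μM for c-Src, 60 μM for Syk) were then added for 1 hr, followed by 1 hr protease development.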

Another data set concerns the target cSrc (Homo sapiens, UniProt P12931). Description: c-Src enzyme inhibition (FRET). The format is biochemical. The following applies: Table 4a1. In outline:
as §1

A further data set has as its target GSK3α (Homo sapiens, UniProt P49840). Description: GSK 3α enzyme inhibition (FRET), Method 1. The format is biochemical. As to conditions: Table 4a1. In outline:
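GSK3α was preincubated with test compound for 2 hr at RT, then a FRET peptide substrate and ATP were added for 1 hr. Protease development for 1 hr cleaved only non-phosphorylated peptide, and phosphorylation was read as the coumarin/fluorescein emission ratio. Concentrations given are those of the added solutions: enzyme 500 ng/mL, peptide 8 μM, ATP 40 μM.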

A further data set deals with d-U937 cells. The experiment in a line: Cell viability: MTT assay. The format is cell-based, human. The following applies: 1 μg/mL. In outline: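 MTT reduction (1 h, DMSO solubilisation, A550) measured after compound treatment at 1 or 10 μg/mL of differentiated U937 cells for 4 h (5% FCS RPMI1640) or 24 h (10% FCS). Percentage viability loss computed relative to 0.5% DMSO vehicle, with increases tabulated as negative values.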
Background: Tetrazolium dyes change colour on reduction, which living cells bring about.

In data set [1] the test system is TNFα release, d-U937 cells. Description: LPS-induced TNFα release in d-U937 cells. The following applies: Homo sapiens, dU937; relative to 10 μg/mL BIRB796; Table 4c1; read-out: LPS Induced Release of Cytokine in d-U937 Cells, TNFα REC50. The format is cell-based. In outline:
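Sandwich ELISA quantifies cytokine in supernatants after 4 hr LPS challenge (0.1 μg/mL) of PMA-differentiated (100 ng/mL, 48–72 hr) U937 macrophages given compound 2 hr beforehand. REC50 derived from concentration-response curve, inhibition calculated relative to vehicle.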

Data set [2] relates to ICAM-1 expression, BEAS2B cells. Description: Poly I:C-induced ICAM-1 expression in BEAS2B cells. The format is cell-based. As to conditions: Homo sapiens, BEAS-2B; read-out: Poly IC induced ICAM1 in BEAS2B, IC50. The method in brief: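 Cell-based ELISA for surface ICAM-1 in human BEAS2B cells 18 h after transfection with the RNA-virus mimic poly I:C (1 μg/mL, with Oligofectamine), compounds added 2 h beforehand. OD450–655 divided by Crystal Violet OD595 per well; percent inhibition relative to vehicle.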

Data set [3] has as its system IL-8 release, d-U937 cells. The experiment in a line: LPS-induced IL-8 release in d-U937 cells. The format is cell-based. As to conditions: Homo sapiens, dU937; Table 4c1; read-out: LPS Induced Release of Cytokine in d-U937 Cells, IL-8 IC50. In outline:
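IL-8 release after a 4 hr challenge with LPS (0.1 μg/mL, E. coli 0111:B4) following a 2 hr compound pretreatment. Cells were human U937 monocytes differentiated to macrophage-type with PMA 100 ng/mL for 48–72 hr. Relative 50% effective concentration derived from concentration–response data.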

cSrc, sequence (P12931 whole entry): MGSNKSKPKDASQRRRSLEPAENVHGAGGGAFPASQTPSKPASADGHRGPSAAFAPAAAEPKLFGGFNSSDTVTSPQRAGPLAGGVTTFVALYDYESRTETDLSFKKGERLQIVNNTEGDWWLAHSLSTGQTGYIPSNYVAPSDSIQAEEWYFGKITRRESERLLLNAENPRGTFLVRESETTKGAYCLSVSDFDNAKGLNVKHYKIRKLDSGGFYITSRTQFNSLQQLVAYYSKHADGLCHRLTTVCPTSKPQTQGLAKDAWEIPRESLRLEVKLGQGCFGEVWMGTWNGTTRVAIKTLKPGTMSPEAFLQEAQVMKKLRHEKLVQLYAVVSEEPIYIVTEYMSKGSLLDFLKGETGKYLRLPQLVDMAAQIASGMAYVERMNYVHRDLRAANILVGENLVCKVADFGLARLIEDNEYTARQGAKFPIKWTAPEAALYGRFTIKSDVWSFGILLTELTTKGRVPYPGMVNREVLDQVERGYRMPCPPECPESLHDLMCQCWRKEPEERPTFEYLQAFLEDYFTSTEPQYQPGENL
GSK3α, sequence (P49840 whole entry): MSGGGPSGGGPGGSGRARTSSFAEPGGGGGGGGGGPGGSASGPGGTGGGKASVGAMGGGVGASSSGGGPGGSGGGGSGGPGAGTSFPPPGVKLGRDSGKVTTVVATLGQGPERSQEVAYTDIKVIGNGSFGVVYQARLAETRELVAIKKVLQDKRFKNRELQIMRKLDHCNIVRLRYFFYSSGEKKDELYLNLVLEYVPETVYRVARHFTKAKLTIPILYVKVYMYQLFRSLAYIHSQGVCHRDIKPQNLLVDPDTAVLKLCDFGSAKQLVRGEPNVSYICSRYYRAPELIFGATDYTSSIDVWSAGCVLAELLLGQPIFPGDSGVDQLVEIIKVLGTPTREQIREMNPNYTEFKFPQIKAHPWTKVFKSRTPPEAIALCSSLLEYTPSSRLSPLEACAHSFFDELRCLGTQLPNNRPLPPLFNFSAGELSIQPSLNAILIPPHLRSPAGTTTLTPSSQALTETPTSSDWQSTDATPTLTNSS

Regarding `COc1cc(Nc2cc(Oc3ccc(NC(=O)Nc4cc(C(C)C)nn4-c4ccc(C)cc4)c4ccccc34)ncn2)cc(C(=O)NCCN2CCOCC2)c1` [Example 71, 3-((6-((4-(3-(3-isopropyl-1-(p-tolyl)-1H-pyrazol-5-yl)ureido)naphthalen-1-yl)oxy)pyrimidin-4-yl)amino)-5-methoxy-N-(2-morpholinoethyl)benzamide], the IC50 on Syk is 547 nM; against cSrc, below 1 nM; against GSK3α it was 5770 nM; in data set [2], 7.3 nM; in data set [3] it was 1.9 nM. The “Cell viability at time point in d-U937 cells, 4 h” value in the data set on d-U937 cells is “−ve (−ve and +ve indicate that the value is below and above respectively, the no significant effect threshold, defined as 30% inhibition at 1 μg/mL at the time point indicated)”. The “Cell viability at time point in d-U937 cells, 24 h” value (from here on “Cell viability at time point … 24 h”) in the data set on d-U937 cells was “−ve (−ve and +ve indicate that the value is below and above respectively, the no significant effect threshold, defined as 30% inhibition at 1 μg/mL at the time point indicated)”. Moreover, the EC50 in data set [1] is 2.7 nM.
With `COc1ccc(C(=O)NCCN(C)C)cc1Nc1nccc(Oc2ccc(NC(=O)Nc3cc(C(C)C)nn3-c3ccc(C)cc3)c3ccccc23)n1` [Example 28, N-(2-(dimethylamino)ethyl)-3-((4-((4-(3-(3-isopropyl-1-(p-tolyl)-1H-pyrazol-5-yl)ureido)naphthalen-1-yl)oxy)pyrimidin-2-yl)amino)-4-methoxybenzamide], the IC50 is 54 nM at Syk; below 1 nM on cSrc; above 14000 nM against GSK3α; 140 nM in data set [2]; 32.4 nM in data set [3]. The “Cell viability at time point in d-U937 cells, 4 h” value in the data set with d-U937 cells is “−ve (−ve and +ve indicate that the value is below and above respectively, the no significant effect threshold, defined as 30% inhibition at 1 μg/mL at the time point indicated)”. In the data set with d-U937 cells, the “Cell viability at time point … 24 h” value is “−ve (−ve and +ve indicate that the value is below and above respectively, the no significant effect threshold, defined as 30% inhibition at 1 μg/mL at the time point indicated)”. In addition, the EC50 in data set [1] worked out at 2.2 nM.
In the case of `CNC(=O)c1cccc(Nc2nccc(Oc3ccc(NC(=O)Nc4cc(C(C)(C)C)nn4-c4ccc(C)cc4)c4ccccc34)n2)c1` [Example 16, 3-((4-((4-(3-(3-(tert-butyl)-1-(p-tolyl)-1H-pyrazol-5-yl)ureido)naphthalen-1-yl)oxy)pyrimidin-2-yl)amino)-N-methylbenzamide], the IC50 was 1390 nM against Syk; 9 nM on cSrc; 1400 nM at GSK3α; 1.9 nM in data set [2]; 1.7 nM in data set [3]. Besides, the “Cell viability at time point in d-U937 cells, 4 h” value in the data set on d-U937 cells was “−ve (−ve and +ve indicate that the value is below and above respectively, the no significant effect threshold, defined as 30% inhibition at 1 μg/mL at the time point indicated)”. Further, in the data set on d-U937 cells, the “Cell viability at time point … 24 h” value was “−ve (−ve and +ve indicate that the value is below and above respectively, the no significant effect threshold, defined as 30% inhibition at 1 μg/mL at the time point indicated)”. The EC50 in data set [1] worked out at 1.3 nM.
In the case of `COc1ccc(-n2nc(C(C)C)cc2NC(=O)Nc2ccc(Oc3ccnc(Nc4cc(Cl)cc(C(=O)NCCN5CCOCC5)c4)n3)c3ccccc23)cc1` [Example 61, 3-chloro-5-((4-((4-(3-(3-isopropyl-1-(4-methoxyphenyl)-1H-pyrazol-5-yl)ureido)naphthalen-1-yl)oxy)pyrimidin-2-yl)amino)-N-(2-morpholinoethyl)benzamide], the IC50 on Syk stood at 32 nM; against cSrc, 9 nM; on GSK3α it was 6940 nM; in data set [2] it was 129 nM; in data set [3] it was 2 nM. In the data set on d-U937 cells, the “Cell viability at time point in d-U937 cells, 4 h” value is “−ve (−ve and +ve indicate that the value is below and above respectively, the no significant effect threshold, defined as 30% inhibition at 1 μg/mL at the time point indicated)”. The “Cell viability at time point … 24 h” value with d-U937 cells was “−ve (−ve and +ve indicate that the value is below and above respectively, the no significant effect threshold, defined as 30% inhibition at 1 μg/mL at the time point indicated)”. Moreover, the EC50 in data set [1] was found to be 1.1 nM.
Regarding `COc1ccc(-n2nc(C(C)C)cc2NC(=O)Nc2ccc(Oc3ccnc(Nc4cc(C(=O)NCCN5CCOCC5)cc(C(F)(F)F)c4)n3)c3ccccc23)cc1` [Example 47, 3-((4-((4-(3-(3-isopropyl-1-(4-methoxyphenyl)-1H-pyrazol-5-yl)ureido)naphthalen-1-yl)oxy)pyrimidin-2-yl)amino)-N-(2-morpholinoethyl)-5-(trifluoromethyl)benzamide], the IC50 was determined as 12 nM on Syk; 5 nM on cSrc; 2850 nM against GSK3α; 3.6 nM in data set [2]; 1.4 nM in data set [3]. The “Cell viability at time point in d-U937 cells, 4 h” value in the data set with d-U937 cells was “−ve (−ve and +ve indicate that the value is below and above respectively, the no significant effect threshold, defined as 30% inhibition at 1 μg/mL at the time point indicated)”. For the same molecule, the “Cell viability at time point … 24 h” value with d-U937 cells was “−ve (−ve and +ve indicate that the value is below and above respectively, the no significant effect threshold, defined as 30% inhibition at 1 μg/mL at the time point indicated)”. The EC50 in data set [1] turned out to be 0.8 nM.
Regarding `Cc1ccc(-n2nc(C3(C)COC3)cc2NC(=O)Nc2ccc(Oc3ccnc(Nc4cccc(C(=O)NCCN5CCOCC5)c4)n3)c3ccccc23)cc1` [Example 22, 3-((4-((4-(3-(3-(3-methyloxetan-3-yl)-1-(p-tolyl)-1H-pyrazol-5-yl)ureido)naphthalen-1-yl)oxy)pyrimidin-2-yl)amino)-N-(2-morpholinoethyl)benzamide], the IC50 at Syk is 292 nM; against cSrc, below 1 nM; against GSK3α, 930 nM; in data set [2] it was 4.1 nM; in data set [3], 1.3 nM. In the data set on d-U937 cells, the “Cell viability at time point in d-U937 cells, 4 h” value is “−ve (−ve and +ve indicate that the value is below and above respectively, the no significant effect threshold, defined as 30% inhibition at 1 μg/mL at the time point indicated)”. Also, in the data set on d-U937 cells, the “Cell viability at time point … 24 h” value was “−ve (−ve and +ve indicate that the value is below and above respectively, the no significant effect threshold, defined as 30% inhibition at 1 μg/mL at the time point indicated)”. Further, in data set [1], the EC50 worked out at 4.5 nM.
Turning to `COc1cc(C(=O)NCCO)ccc1Nc1nccc(Oc2ccc(NC(=O)Nc3cc(C(C)(C)C)nn3-c3ccc(C)cc3)c3ccccc23)n1` [Example 4, 4-((4-((4-(3-(3-(tert-Butyl)-1-(p-tolyl)-1H-pyrazol-5-yl)ureido)naphthalen-1-yl)oxy)pyrimidin-2-yl)amino)-N-(2-hydroxyethyl)-3-methoxybenzamide], the IC50 on Syk is 124 nM; on cSrc it was 49 nM; against GSK3α, above 14300 nM; in data set [2] it was 4.6 nM; in data set [3], 6.6 nM. The “Cell viability at time point in d-U937 cells, 4 h” value with d-U937 cells was “−ve (−ve and +ve indicate that the value is below and above respectively, the no significant effect threshold, defined as 30% inhibition at 1 μg/mL at the time point indicated)”. The “Cell viability at time point … 24 h” value in the data set with d-U937 cells is “−ve (−ve and +ve indicate that the value is below and above respectively, the no significant effect threshold, defined as 30% inhibition at 1 μg/mL at the time point indicated)”. Besides, in data set [1], the EC50 is 0.7 nM.
`COc1cc(Nc2nccc(Oc3ccc(NC(=O)Nc4cc(C(C)(C)C)nn4-c4ccc(C)cc4)c4ccccc34)n2)cc(C(=O)NCCN2CCOCC2)c1` [Example 52, 3-((4-((4-(3-(3-(tert-butyl)-1-(p-tolyl)-1H-pyrazol-5-yl)ureido)naphthalen-1-yl)oxy)pyrimidin-2-yl)amino)-5-methoxy-N-(2-morpholinoethyl)benzamide]: the IC50 against Syk amounted to 6 nM; against cSrc, 3 nM; against GSK3α, 247 nM; in data set [2], 5 nM; in data set [3] it was 1.5 nM. Also, in the data set on d-U937 cells, the “Cell viability at time point in d-U937 cells, 4 h” value was “−ve (−ve and +ve indicate that the value is below and above respectively, the no significant effect threshold, defined as 30% inhibition at 1 μg/mL at the time point indicated)”. Moreover, in the data set on d-U937 cells, the “Cell viability at time point … 24 h” value was “−ve (−ve and +ve indicate that the value is below and above respectively, the no significant effect threshold, defined as 30% inhibition at 1 μg/mL at the time point indicated)”. Further, the EC50 in data set [1] worked out at 0.3 nM.
